The target in this experiment is T1, full length SGK1 (Homo sapiens, UniProt O00141).
T1 construct: 125 μM full length SGK1 (Life Technologies Part #PR7358A); purchased Life Technologies PR7358A
T1 sequence (O00141 1-431): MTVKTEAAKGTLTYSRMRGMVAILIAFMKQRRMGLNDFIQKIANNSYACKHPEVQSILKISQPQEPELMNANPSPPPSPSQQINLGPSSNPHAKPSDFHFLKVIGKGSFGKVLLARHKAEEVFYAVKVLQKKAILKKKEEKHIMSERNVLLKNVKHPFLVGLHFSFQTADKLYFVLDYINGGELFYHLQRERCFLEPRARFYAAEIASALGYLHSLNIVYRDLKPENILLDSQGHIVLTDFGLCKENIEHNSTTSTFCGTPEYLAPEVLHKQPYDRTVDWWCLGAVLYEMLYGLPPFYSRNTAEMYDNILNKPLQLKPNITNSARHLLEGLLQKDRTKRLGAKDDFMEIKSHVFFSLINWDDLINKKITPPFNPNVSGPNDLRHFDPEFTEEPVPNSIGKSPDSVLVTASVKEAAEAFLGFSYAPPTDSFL
Kind of experiment: SGK1 inhibition Assay A (Caliper LabChip electrophoretic separation of fluorescent peptide substrate and phosphorylated product). The format is biochemical. Particulars: Assay A; 20 μM ATP, 40 min incubation; read-out: SGK1 IC50.

Structures are written as SMILES.

What is called IC50 is the midpoint of a concentration-inhibition curve.

Consider `CC(=O)N1CC=C(c2cc(N3CCC[C@@H](NC(=O)c4sc(C5CC5)cc4OCCN(C)C)C3)c3c(N)ncnn23)C1` [Example 370, (R)—N-(1-(7-(1-acetyl-2,5-dihydro-1H-pyrrol-3-yl)-4-aminopyrrolo[2,1-f][1,2,4]triazin-5-yl)piperidin-3-yl)-5-cyclopropyl-3-(2-(dimethylamino)ethoxy)thiophene-2-carboxamide], for which the 50% inhibitory concentration (IC50) was found to be 18 nM. As to `COC(=O)N1CC=C(c2cc(N3CCC[C@@H](NC(=O)c4sc(C5CC5)cc4OCCN(C)C)C3)c3c(N)ncnn23)C1` [Example 371, Methyl (R)-3-(4-amino-5-(3-(5-cyclopropyl-3-(2-(dimethylamino)ethoxy)thiophene-2-carboxamido)piperidin-1-yl)pyrrolo[2,1-f][1,2,4]triazin-7-yl)-2,5-dihydro-1H-pyrrole-1-carboxylate], the IC50 was determined as 1 nM. On to `CN(C)CCOc1cc(C2CC2)sc1C(=O)N[C@@H]1CCCN(c2cc(-c3ccc(C#N)nc3)n3ncnc(N)c23)C1` [Example 372, (R)-N-(1-(4-amino-7-(6-cyanopyridin-3-yl)pyrrolo[2,1-f][1,2,4]triazin-5-yl)piperidin-3-yl)-5-cyclopropyl-3-(2-(dimethylamino)ethoxy) thiophene-2-carboxamide], for which the half-maximal inhibitory concentration (IC50) was 2 nM.

`CN(C)CCOc1cc(C2CC2)sc1C(=O)N[C@@H]1CCCN(c2cc(-c3ccc(C(N)=O)c(F)c3)n3ncnc(N)c23)C1` [Example 373, (R)-N-(1-(4-amino-7-(4-carbamoyl-3-fluorophenyl)pyrrolo[2,1-f][1,2,4]triazin-5-yl)piperidin-3-yl)-5-cyclopropyl-3-(2-(dimethylamino)ethoxy) thiophene-2-carboxamide]: the half-maximal inhibitory concentration (IC50) came out at 2 nM. For `CN(C)CCOc1cc(C2CC2)sc1C(=O)N[C@@H]1CCCN(c2cc(-c3cncnc3)n3ncnc(N)c23)C1` [Example 374, (R)-N-(1-(4-amino-7-(pyrimidin-5-yl)pyrrolo[2,1-f][1,2,4]triazin-5-yl)piperidin-3-yl)-5-cyclopropyl-3-(2-(dimethylamino)ethoxy) thiophene-2-carboxamide], the IC50 stood at 111 nM. Next, `CN(C)CCOc1cc(C2CC2)sc1C(=O)N[C@@H]1CCCN(c2cc(-c3ccc(=O)n(CC(F)F)c3)n3ncnc(N)c23)C1` [Example 375, (R)-N-(1-(4-amino-7-(1-(2,2-difluoroethyl)-6-oxo-1,6-dihydropyridin-3-yl)pyrrolo[2,1-f] [1,2,4]triazin-5-yl)piperidin-3-yl)-5-cyclopropyl-3-(2-(dimethylamino)ethoxy)thiophene-2-carboxamide]: 21 nM. As to `CC(=O)N1CC=C(c2cc(N3CCC[C@@H](NC(=O)c4sc(C5CC5)cc4OC4CCN(C)CC4)C3)c3c(N)ncnn23)C1` [Example 376, (R)—N-(1-(7-(1-acetyl-2,5-dihydro-1H-pyrrol-3-yl)-4-aminopyrrolo[2,1-f][1,2,4]triazin-5-yl)piperidin-3-yl)-5-cyclopropyl-3-((1-methylpiperidin-4-yl)oxy)thiophene-2-carboxamide], the half-maximal inhibitory concentration (IC50) was found to be 7 nM. Regarding `CC(=O)N1CC=C(c2cc(N3CCC[C@@H](NC(=O)c4sc(C5CC5)cc4OC4CCNCC4)C3)c3c(N)ncnn23)C1` [Example 376E, (R)—N-(1-(7-(1-acetyl-2,5-dihydro-1H-pyrrol-3-yl)-4-aminopyrrolo[2,1-f][1,2,4]triazin-5-yl)piperidin-3-yl)-5-cyclopropyl-3-(piperidin-4-yloxy)thiophene-2-carboxamide], the half-inhibitory concentration (IC50) is 3 nM. On to `CC(=O)N1CC=C(c2cc(N3CCC[C@@H](NC(=O)c4sc(C5CC5)cc4OC4CCN(C(C)C)CC4)C3)c3c(N)ncnn23)C1` [Example 377, (R)-N-(1-(7-(1-acetyl-2,5-dihydro-1H-pyrrol-3-yl)-4-aminopyrrolo[2,1-f][1,2,4]triazin-5-yl)piperidin-3-yl)-5-cyclopropyl-3-((1-isopropylpiperidin-4-yl)oxy)thiophene-2-carboxamide], for which the IC50 is 35 nM.

As for `CC(=O)N1CC=C(c2cc(N3CCC[C@@H](NC(=O)c4sc(C5CC5)cc4OC4CCN(C5CC5)CC4)C3)c3c(N)ncnn23)C1` [Example 378, (R)-N-(1-(7-(1-acetyl-2,5-dihydro-1H-pyrrol-3-yl)-4-aminopyrrolo[2,1-f][1,2,4]triazin-5-yl)piperidin-3-yl)-5-cyclopropyl-3-((1-cyclopropylpiperidin-4-yl)oxy)thiophene-2-carboxamide], the IC50 came out at 43 nM.

On to `COC(=O)N1CC=C(c2cc(N3CCC[C@@H](NC(=O)c4sc(C5CC5)cc4OC4CCNCC4)C3)c3c(N)ncnn23)C1` [Example 379, Methyl (R)-3-(4-amino-5-(3-(5-cyclopropyl-3-(piperidin-4-yloxy)thiophene-2-carboxamido)piperidin-1-yl)pyrrolo[2,1-f][1,2,4]triazin-7-yl)-2,5-dihydro-1H-pyrrole-1-carboxylate], for which the 50% inhibitory concentration (IC50) came out at 3 nM. As for `NC(=O)c1ccc(-c2cc(N3CCC[C@@H](NC(=O)c4sc(C5CC5)cc4OC4CCNCC4)C3)c3c(N)ncnn23)cc1F` [Example 380, (R)-N-(1-(4-amino-7-(4-carbamoyl-3-fluorophenyl)pyrrolo[2,1-f][1,2,4]triazin-5-yl)piperidin-3-yl)-5-cyclopropyl-3-(piperidin-4-yloxy)thiophene-2-carboxamide], the IC50 amounted to 1 nM. In the case of `CN1CCC(Oc2cc(C3CC3)sc2C(=O)N[C@@H]2CCCN(c3cc(-c4ccc(C#N)nc4)n4ncnc(N)c34)C2)CC1` [Example 381, (R)-N-(1-(4-amino-7-(6-cyanopyridin-3-yl)pyrrolo[2,1-f][1,2,4]triazin-5-yl)piperidin-3-yl)-5-cyclopropyl-3-((1-methylpiperidin-4-yl)oxy)thiophene-2-carboxamide], the IC50 was 6 nM. For `CC(C)N1CCC(Oc2cc(C3CC3)sc2C(=O)N[C@@H]2CCCN(c3cc(-c4ccc(C#N)nc4)n4ncnc(N)c34)C2)CC1` [Example 382, (R)-N-(1-(4-amino-7-(6-cyanopyridin-3-yl)pyrrolo[2,1-f][1,2,4]triazin-5-yl)piperidin-3-yl)-5-cyclopropyl-3-((1-isopropylpiperidin-4-yl)oxy)thiophene-2-carboxamide], the IC50 was determined as 5 nM. Turning to `N#Cc1ccc(-c2cc(N3CCC[C@@H](NC(=O)c4sc(Cl)cc4OC4CN(CC(F)F)C4)C3)c3c(N)ncnn23)cn1` [Example 383, (R)—N-(1-(4-amino-7-(6-cyanopyridin-3-yl)pyrrolo[2,1-f][1,2,4]triazin-5-yl)piperidin-3-yl)-5-chloro-3-((1-(2,2-difluoroethyl)azetidin-3-yl)oxy)thiophene-2-carboxamide], the IC50 was determined as 25 nM.

As for `CC(=O)N1CC=C(c2cc(N3CCC[C@@H](NC(=O)c4sc(Cl)cc4OC4CN(CC(F)F)C4)C3)c3c(N)ncnn23)C1` [Example 384, (R)-N-(1-(7-(1-acetyl-2,5-dihydro-1H-pyrrol-3-yl)-4-aminopyrrolo[2,1-f][1,2,4]triazin-5-yl)piperidin-3-yl)-5-chloro-3-((1-(2,2-difluoroethyl)azetidin-3-yl)oxy)thiophene-2-carboxamide], the half-inhibitory concentration (IC50) is 57 nM. In the case of `COC(=O)N1CC=C(c2cc(N3CCC[C@@H](NC(=O)c4sc(Cl)cc4OC4CN(CC(F)F)C4)C3)c3c(N)ncnn23)C1` [Example 385, Methyl (R)-3-(4-amino-5-(3-(5-chloro-3-((1-(2,2-difluoroethyl)azetidin-3-yl)oxy)thiophene-2-carboxamido)piperidin-1-yl)pyrrolo[2,1-f][1,2,4]triazin-7-yl)-2,5-dihydro-1H-pyrrole-1-carboxylate], the half-inhibitory concentration (IC50) came to 21 nM. Next, `NC(=O)c1ccc(-c2cc(N3CCC[C@@H](NC(=O)c4sc(Cl)cc4OC4CN(CC(F)F)C4)C3)c3c(N)ncnn23)cc1F` [Example 386, (R)-N-(1-(4-amino-7-(4-carbamoyl-3-fluorophenyl)pyrrolo[2,1-f][1,2,4]triazin-5-yl)piperidin-3-vl)-5-chloro-3-((1-(2,2-difluoroethyl)azetidin-3-yl)oxy)thiophene-2-carboxamide]: 6 nM; `Nc1ncnn2c(-c3ccc(=O)n(CC(F)F)c3)cc(N3CCC[C@@H](NC(=O)c4sc(Cl)cc4OC4CN(CC(F)F)C4)C3)c12` [Example 387, (R)-N-(1-(4-amino-7-(1-(2,2-difluoroethyl)-6-oxo-1,6-dihydropyridin-3-yl)pyrrolo[2,1-f][1,2,4]triazin-5-yl)piperidin-3-yl)-5-chloro-3-((1-(2,2-difluoroethyl)azetidin-3-yl)oxy)thiophene-2-carboxamide]: 29 nM. Take `COC(=O)N1CC=C(c2cc(N3CCC[C@@H](NC(=O)c4sc(C5CC5)cc4OC4CNC4)C3)c3c(N)ncnn23)C1` [Example 388, methyl (R)-3-(4-amino-5-(3-(3-(azetidin-3-yloxy)-5-cyclopropylthiophene-2-carboxamido)piperidin-1-yl)pyrrolo[2,1-f][1,2,4]triazin-7-yl)-2,5-dihydro-1H-pyrrole-1-carboxylate]: the IC50 worked out at 3 nM. `NC(=O)c1ccc(-c2cc(N3CCC[C@@H](NC(=O)c4sc(C5CC5)cc4OC4CNC4)C3)c3c(N)ncnn23)cc1F` [Example 389, (R)—N-(1-(4-amino-7-(4-carbamoyl-3-fluorophenyl)pyrrolo[2,1-f][1,2,4]triazin-5-yl)piperidin-3-yl)-3-(azetidin-3-yloxy)-5-cyclopropylthiophene-2-carboxamide]: the IC50 was 0.4 nM. As for `COc1ccc(-n2cc(OCCN(C)C)c(C(=O)N[C@@H]3CCCN(c4cc(-c5ccc(C#N)nc5)n5ncnc(N)c45)C3)n2)cc1` [Example 392], the IC50 was found to be 151 nM.

These data come from US20260250290A1 (BRISTOL-MYERS SQUIBB COMPANY, priority 2023, published 2026).
